According to patent US6727264B1 (Synaptic Pharmaceutical Corporation, priority 2001, dated 2004):

Molecular target: rat MCH-1 (Rattus norvegicus, UniProt P97639)
Assay: Radioligand binding assay at cloned rat MCH1 receptor ([3H] Compound A)
Design: host or cells: Peak rapid 293 (Peakr293) cells, transient calcium phosphate transfection, membranes
Details: cloned rat MCH1 receptor; 0.08 nM [3H] Compound A; Peakr293 cell membranes; read-out: Ki (nM) rMCH1

Sequence of rat MCH-1 (P97639 whole entry): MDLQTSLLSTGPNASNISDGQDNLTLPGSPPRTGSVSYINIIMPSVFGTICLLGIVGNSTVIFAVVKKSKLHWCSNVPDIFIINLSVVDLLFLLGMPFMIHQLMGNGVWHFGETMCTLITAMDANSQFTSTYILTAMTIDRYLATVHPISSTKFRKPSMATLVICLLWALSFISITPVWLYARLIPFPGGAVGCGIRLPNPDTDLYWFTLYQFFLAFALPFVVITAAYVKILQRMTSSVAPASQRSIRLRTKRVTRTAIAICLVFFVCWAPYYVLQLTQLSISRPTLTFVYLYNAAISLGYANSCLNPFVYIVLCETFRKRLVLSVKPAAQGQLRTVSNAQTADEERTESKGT

Ki [nM]	Structure (SMILES)
27.5	O=C(CCCCN1CCC(c2cccc(NC(=O)C3CC3)c2)CC1)c1cccc([N+](=O)[O-])c1 [Example 553]
70.9	CCC(=O)Nc1cccc(C2CCN(CCCCC(=O)c3ccccc3F)CC2)c1 [Example 554]
50.3	CCC(=O)Nc1cccc(C2CCN(CCCCC(=O)c3cccc(F)c3)CC2)c1 [Example 555]
35.6	CCC(=O)Nc1cccc(C2CCN(CCCCC(=O)c3ccc([N+](=O)[O-])cc3)CC2)c1 [Example 556]
25.6	O=C(CCCCN1CCC(c2cccc(NC(=O)C3CC3)c2)CC1)c1ccc([N+](=O)[O-])cc1 [Example 557]
20.2	O=C(CCCCN1CCC(c2cccc(NC(=O)C3CC3)c2)CC1)c1ccc(Cl)cc1 [Example 558]
62.3	CCC(=O)Nc1cccc(C2CCN(CCCCC(=O)c3ccccc3C(F)(F)F)CC2)c1 [Example 559]
55.7	O=C(CCCCN1CCC(c2cccc(NC(=O)C3CC3)c2)CC1)c1ccccc1C(F)(F)F [Example 560]
92.9	CCC(=O)Nc1cccc(C2CCN(CCCCC(=O)c3ccc(Cl)cc3)CC2)c1 [Example 561]
48.1	CCC(=O)Nc1cccc(C2CCN(CCCCC(=O)c3cccc(Cl)c3)CC2)c1 [Example 562]
50.2	O=C(CCCCN1CCC(c2cccc(NC(=O)C3CC3)c2)CC1)c1ccccc1F [Example 563]
28.9	O=C(CCCCN1CCC(c2cccc(NC(=O)C3CC3)c2)CC1)c1cccc(Cl)c1 [Example 564]
49.2	O=C(CCCCN1CCC(c2cccc(NC(=O)C3CC3)c2)CC1)c1ccc(C(F)(F)F)cc1 [Example 565]
77.8	CCC(=O)Nc1cccc(C2CCN(CCCCC(=O)c3ccccc3Cl)CC2)c1 [Example 566]
92.2	O=C(CCCCN1CCC(c2cccc(NC(=O)C3CC3)c2)CC1)c1ccccc1Cl [Example 567]
68.8	O=C(CCCCN1CCC(c2cccc(NC(=O)C3CC3)c2)CC1)c1cccc(C(F)(F)F)c1 [Example 568]

Ki [nM]	Structure (SMILES)
549	Cc1ccc(C(=O)CCCN2CCC(c3cccc(N(C)C(=O)C(C)C)c3)CC2)cc1C [Example 569]
136	CC(C)C(=O)Nc1cccc(C2CCN(C(C)CCC(=O)c3ccccc3)CC2)c1 (centres unmarked) [Example 570]
88.3	CCC(=O)Nc1cccc(C2CCN(CCCCC(=O)c3cccc(C(F)(F)F)c3)CC2)c1 [Example 571]
181	CC(C)C(=O)Nc1cccc(C2CCN(CCCCC(=O)N3C(=O)OC[C@H]3c3ccc(F)c(F)c3)CC2)c1 [Example 572]
114	CC(C)C(=O)Nc1cccc(C2CCN(CCCNC(=O)N3C(=O)OC[C@H]3c3ccc(F)c(F)c3)CC2)c1 [Example 573]
87.1	CC(C)C(=O)Nc1cccc(C2CCN(CCCCCN3C(=O)OC[C@@H]3c3ccc(F)c(F)c3)CC2)c1 [Example 574]
193	CC(C)C(=O)Nc1cccc(C2CCN(CCCCC(=O)N3C(=O)OC[C@@H]3c3ccc(F)c(F)c3)CC2)c1 [Example 575]
74.3	CC(C)C(=O)Nc1cccc(C2CCN(CCCNC(=O)N3C(=O)OC[C@@H]3c3ccc(F)c(F)c3)CC2)c1 [Example 576]
64.7	CC(C)C(=O)Nc1cccc(C2CCN(CCCNC(=O)N3C(=O)OC[C@@H]3c3cc(F)c(F)c(F)c3)CC2)c1 [Example 577]
98.8	CC(C)C(=O)Nc1cccc(C2CCN(CCCNC(=O)N3C(=O)OC[C@@H]3c3cc(F)cc(F)c3)CC2)c1 [Example 578]
131	CCC(=O)Nc1cccc(C2CCN(CCCSc3ccccc3)CC2)c1 [Example 579]
54	O=C(Nc1cccc(C2CCN(CCCSc3ccccc3)CC2)c1)C1CC1 [Example 580]
86.4	CC(C)C(=O)Nc1cccc(C2CCN(CCCSc3ccccc3)CC2)c1 [Example 581]
58.3	O=C(Nc1cccc(C2CCN(CCCCCCSc3ccccc3)CC2)c1)C1CC1 [Example 582]
55.5	CCC(=O)Nc1cccc(C2CCN(CCCCSc3ccccc3)CC2)c1 [Example 583]
51.8	O=C(Nc1cccc(C2CCN(CCCCSc3ccccc3)CC2)c1)C1CC1 [Example 584]
